# Data reported in patent publication US20120258960A1, “NOVEL MULTIFUNCTIONAL PEPTIDASE INHIBITORS, ESPECIALLY FOR MEDICAL USE” (IMTM GMBH, priority 2009, published 2012).
# What was measured:
# [1] = system: human peripheral blood mononuclear cells; assay: Inhibition of proliferation of PHA-stimulated mononuclear cells (BrdU incorporation); type: cell-based; settings: PBMC, 1 μg/ml Phytohemagglutinine, 48 hours, test compounds 0.1-250 μM, read-out: MNC IC50
# Procedure: (§1) Peripheral blood mononuclear cells (PBMC) from healthy human volunteers were freshly isolated by density gradient centrifugation. T lymphocytes (T cells, Tc) were isolated from PBMC fractions via nylon wool adherence. Cells were cultured in standard cell culture media and stimulated by addition of 1 μg/ml Phytohemagglutinine for 48 hours in 96 well flat-bottom microtitre plates. Test compounds were added at concentration ranges from 0.1-250 μM over the total assay period.
# DNA synthesis of proliferating PBMC was assessed by incorporation of nucleotide analogue bromdesoxyuridine (BrdU) and subsequent detection of optical density (OD) at 450 nm.
# (§2) Data output was based on raw data and calculation of relative proliferation response in relation to PHA-activated T cells in the absence of test compound (100% control).
# (§3) The […] value of proliferation suppression was assessed by graphical evaluation.
# [2] = system: T lymphocytes; assay: Inhibition of proliferation of PHA-stimulated T lymphocytes (tritium thymidine incorporation); type: cell-based; settings: Homo sapiens, T-lymphocyte, 1 μg/ml Phytohemagglutinine, 48 hours, test compounds 0.1-250 μM, read-out: T cells IC50
# Procedure: as §1
# DNA synthesis of proliferating T cells was determined by incorporation of radio labelled tritium thymidine and subsequent radio detection.
# as §2, §3
Compound,IC50 [1] [µM],IC50 [2] [µM]
CCCCCCCCCCCC(=O)OC(C(=O)NCC(C)(C)CNC(=O)CC(N)Cc1cc(F)ccc1F)C(N)Cc1ccccc1 (centres unmarked) [drawing 253],1.7,2
CC(C)(CNC(=O)CC(N)Cc1cc(F)ccc1F)CNC(=O)C(O)C(N)Cc1ccc(-c2ccsc2)cc1 (centres unmarked) [drawing 280],4.6,6.3
CC(C)(NC(=O)CC(N)Cc1ccccc1)C(C)(C)NC(=O)C(O)C(N)Cc1ccccc1 (centres unmarked) [drawing 226],46.9,16.1
CCCCCCCCCCCCCCCC(=O)NC(CC(=O)NCC(C)(C)CNC(=O)C(O)C(Cc1ccccc1)NC(=O)CCCCCCCCCCCCCCC)Cc1cc(F)ccc1F (centres unmarked) [drawing 268],200,97.5
CC(C)(CNC(=O)CC(N)Cc1ccccc1)CNC(=O)CC(O)C(N)Cc1ccccc1 (centres unmarked) [drawing 230],200,≥ 200
NC(CC(=O)NCCNC(=O)CC(O)C(N)Cc1ccccc1)Cc1ccccc1 (centres unmarked) [drawing 224],120,157
NC(CC(=O)NCCNC(=O)C(O)C(N)Cc1ccccc1)Cc1cc(F)ccc1F (centres unmarked) [drawing 221],200,≥ 200
CN(CCCNC(=O)OCc1ccccc1)C(=O)C(O)C(N)Cc1ccccc1 (centres unmarked) [drawing 278],149,≥ 200
NC(CC(=O)NCC1(CNC(=O)C(O)C(N)Cc2ccccc2)CCC1)Cc1ccccc1 (centres unmarked) [drawing 235],200,157
CCCC(=O)OC(C(=O)NCC(C)(C)CNC(=O)CC(N)Cc1cc(F)ccc1F)C(N)Cc1ccccc1 (centres unmarked) [drawing 260],95.1,55.3
CCCC(=O)NC(CC(=O)NCC(C)(C)CNC(=O)C(O)C(Cc1ccccc1)NC(=O)CCC)Cc1cc(F)ccc1F (centres unmarked) [drawing 244],54.5,53.9
NC(CNC(=O)c1cccc(NC(=O)C(O)C(N)Cc2ccc(-c3ccsc3)cc2)c1)Cc1cc(F)ccc1F (centres unmarked) [drawing 284],4.7,3.9
NC(CC(=O)NCCCCNC(=O)C(O)C(N)Cc1ccc(C(=O)O)cc1)Cc1cc(F)ccc1F (centres unmarked) [drawing 251],130,112
CN(CCCNC(=O)C(O)C(N)Cc1ccccc1)C(=O)CC(N)Cc1cc(F)ccc1F (centres unmarked) [drawing 243],157,≥ 200
NC(CNC(=O)c1cccc(NC(=O)C(O)C(N)Cc2ccc(-c3cccnc3)cc2)c1)Cc1cc(F)ccc1F (centres unmarked) [drawing 285],37.8,24.3
CC(C)(CNC(=O)CC(N)Cc1cc(F)ccc1F)CNC(=O)C1OC(=O)NC1Cc1ccc(-c2ccccc2)cc1 (centres unmarked) [drawing 275],200,139
CCCCCCCCCCCCCCCC(=O)OC(C(=O)NCC(C)(C)CNC(=O)CC(N)Cc1cc(F)ccc1F)C(N)Cc1ccccc1 (centres unmarked) [drawing 249],35.8,34.4
NC(CC(=O)NCCNC(=O)C(O)C(N)Cc1ccccc1)Cc1ccc2ccccc2c1 (centres unmarked) [drawing 219],30.4,34
NC(CC(=O)NC1CCCC(NC(=O)C(O)C(N)Cc2ccccc2)C1)Cc1cc(F)ccc1F (centres unmarked) [drawing 269],200,113
CC(C)(CNC(=O)CC(CN)Cc1ccccc1)CNC(=O)C(O)C(N)Cc1ccccc1 (centres unmarked) [drawing 240],64.4,60.7
NC(CC(=O)N1CCN(C(=O)C(O)C(N)Cc2ccccc2)CC1)Cc1ccccc1 (centres unmarked) [drawing 223],140,157
CCCCCCCC(=O)NC(CC(=O)NCC(C)(C)CNC(=O)C(O)C(Cc1ccccc1)NC(=O)CCCCCCC)Cc1cc(F)ccc1F (centres unmarked) [drawing 239],10.9,8.2
CCC(CC)(CNC(=O)CC(N)Cc1ccccc1)CNC(=O)C(O)C(N)Cc1ccccc1 (centres unmarked) [drawing 228],49.1,14.8
CCCCCCCC(=O)OC(C(=O)NCC(C)(C)CNC(=O)CC(N)Cc1cc(F)ccc1F)C(N)Cc1ccccc1 (centres unmarked) [drawing 247],5.8,7.4
NC(CC(=O)NCCCCNC(=O)C(O)C(N)Cc1ccccc1)Cc1cc(F)ccc1F (centres unmarked) [drawing 231],134,≥ 200
